Experiments:
Assay type in all cases: biochemical
[1] = system: iNicSnFR12; conditions: read-out: EC50, μM (Figure 1B, 1C, purified sensors); n = 3
[2] = system: iNicSnFR11; assay: Fluorescence dose-response relations of nicotinic drugs at purified iNicSnFR11; conditions: purified iNicSnFR11 100 nM, 3×PBS pH 7.40, Hill fit
[3] = system: iNicSnFR12; assay: Fluorescence dose-response relations of nicotinic drugs at purified iNicSnFR12
[4] = system: iNicSnFR12-S467R; assay: Nicotine-induced fluorescence increase of purified iNicSnFR12-S467R, Hill fit; conditions: read-out: EC50 (nicotine-induced fluorescence, iNicSnFR12-S467R); SEM, n = 3

`C[N+](C)(C)CCO` [choline] was tested, and the EC50 [1] was no less than 100 µM, the EC50 [2] was roughly 170 µM and the “expected activation at iNicSnFR12” value ([3]; [choline] 1 μM as in 10% rat serum) was “at most 1%”. For the same compound, the “expected activation at iNicSnFR12” value ([3]; [choline] 2.5 μM as in 25% human serum) was no more than 2.5%.

In the case of `CN1CCC[C@H]1c1cccnc1` [nicotine], the EC50 [4] is reported as 25.6 µM.

Reference: publication PMC9882114 (bioRxiv, 2024)
